This experiment concerns CREB pathway. Description: microarray gene expression from the livers of rats exposed to drugs, mapped on pathway maps (signature networks method). To be noted: rat liver, treated vs untreated, custom cDNA two-channel arrays, five repeats; no threshold for fold change and P-values; FIG. 16C. It counts as in vivo.

Molecules are shown by their SMILES.

Procedure: This dataset contains microarray gene expression from the livers of rats exposed to three drugs: phenobarbital, mestranol, and tamoxifen. The data were produced by custom cDNA two-channel arrays. Five biological repeats were performed for each treatment and a set of five samples from the untreated animals were analyzed.
A pre-computed comprehensive set of overlapping canonical pathways derived from 450 signaling and metabolic pathway maps manually created using a general database, MetaCore™ was obtained. These pathways then were used as a framework for mapping experimental datasets as well as to calculate the network modules most relevant to specific pathways (FIG. 15). The maps feature approximately 3,000 proteins and over 2,000 overlapping human pathways. On these maps, typical signaling inputs (indicated by block arrows) are identified. The network modules were then generated as chains of interactions/reactions initiated at one of the signaling inputs and followed down to the last protein identified in the canonical pathway; such termini often are transcription factors and their targets. These pathways represent linear modules of cell signaling, usually parts of signaling cascades between secondary messengers and transcription factors. […]
FIG. 16C is the top scored CREB pathway map for the genes content of the network A. Gene expression was mapped without thresholds. […]

As to `CC/C(=C(\c1ccccc1)c1ccc(OCCN(C)C)cc1)c1ccccc1` [tamoxifen], the “direction of expression (fold change) of genes on the highest scored pathway map, CREB pathway” value is recorded as “down-regulated”.

The values are drawn from patent US9353415B2, “Methods for functional analysis of high-throughput experimental data and gene groups identified therefrom” (Thomson Reuters (Scientific) LLC, priority 2006, dated 2016).
